Experiment in all cases: TLR7/8/9 Inhibition Reporter Assays
Background: In a reporter assay the amount or activity of a reporter protein is the signal.

The target of assay [1] is T1, Toll-like receptor 9 (Homo sapiens, UniProt Q9NR96).
T1 sequence (Q9NR96 whole entry): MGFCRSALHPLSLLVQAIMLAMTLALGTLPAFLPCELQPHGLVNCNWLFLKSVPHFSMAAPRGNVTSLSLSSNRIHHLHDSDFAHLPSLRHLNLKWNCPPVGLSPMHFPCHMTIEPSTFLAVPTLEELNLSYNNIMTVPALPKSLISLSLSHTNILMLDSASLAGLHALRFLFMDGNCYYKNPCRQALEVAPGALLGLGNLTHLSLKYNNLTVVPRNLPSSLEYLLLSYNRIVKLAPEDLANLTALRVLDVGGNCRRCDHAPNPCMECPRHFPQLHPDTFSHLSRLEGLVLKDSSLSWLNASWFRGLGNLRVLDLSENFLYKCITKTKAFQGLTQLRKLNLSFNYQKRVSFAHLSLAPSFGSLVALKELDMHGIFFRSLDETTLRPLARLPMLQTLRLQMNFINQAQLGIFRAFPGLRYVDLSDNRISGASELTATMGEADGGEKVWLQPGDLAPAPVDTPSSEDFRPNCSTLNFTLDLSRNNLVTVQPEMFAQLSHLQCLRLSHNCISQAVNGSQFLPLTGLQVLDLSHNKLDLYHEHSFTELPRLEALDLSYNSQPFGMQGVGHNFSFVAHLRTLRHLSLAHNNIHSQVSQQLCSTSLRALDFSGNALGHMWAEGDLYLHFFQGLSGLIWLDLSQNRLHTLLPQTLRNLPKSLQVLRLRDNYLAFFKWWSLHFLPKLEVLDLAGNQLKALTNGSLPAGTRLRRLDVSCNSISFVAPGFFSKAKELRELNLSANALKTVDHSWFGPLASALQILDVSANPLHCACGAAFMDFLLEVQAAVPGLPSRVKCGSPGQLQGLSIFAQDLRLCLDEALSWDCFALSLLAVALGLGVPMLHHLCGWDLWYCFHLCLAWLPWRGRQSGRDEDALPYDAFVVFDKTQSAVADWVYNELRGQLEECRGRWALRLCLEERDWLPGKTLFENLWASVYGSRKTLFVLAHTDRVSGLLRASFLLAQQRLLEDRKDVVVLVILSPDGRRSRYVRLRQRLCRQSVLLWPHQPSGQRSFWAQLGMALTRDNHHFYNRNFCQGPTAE
Procedure: (§1) HEK-Blue-cells (Invivogen) overexpressing human TLR7, TLR8 or TLR9 receptors were used for screening inhibitors of these receptors using an inducible SEAP (secreted embryonic alkaline phosphatase) reporter gene under the control of the IFN-β minimal promoter fused to five NF-κB and AP-1-binding sites. Briefly, cells are seeded into Greiner 384 well plates (15000 cells per well for TLR7, 20,000 for TLR8 and 25,000 for TLR9) and then treated with test compounds in DMSO to yield a final dose response concentration range of 0.05 nM-50 μM. […] After a 22 hour incubation at 37 C., 500 CO2, SEAP levels are determined with the addition of HEK-Blue Detection reagent (Invivogen), a cell culture medium that allows for detection of SEAP, according to manufacturer's specifications. The percent inhibition is determined as the 00 reduction in the HEK-Blue signal present in wells treated with agonist plus DMSO alone compared to wells treated with a known inhibitor.

Assay [2] deals with T2, Toll-like receptor 8 (Homo sapiens, UniProt Q9NR97).
T2 sequence (Q9NR97 whole entry): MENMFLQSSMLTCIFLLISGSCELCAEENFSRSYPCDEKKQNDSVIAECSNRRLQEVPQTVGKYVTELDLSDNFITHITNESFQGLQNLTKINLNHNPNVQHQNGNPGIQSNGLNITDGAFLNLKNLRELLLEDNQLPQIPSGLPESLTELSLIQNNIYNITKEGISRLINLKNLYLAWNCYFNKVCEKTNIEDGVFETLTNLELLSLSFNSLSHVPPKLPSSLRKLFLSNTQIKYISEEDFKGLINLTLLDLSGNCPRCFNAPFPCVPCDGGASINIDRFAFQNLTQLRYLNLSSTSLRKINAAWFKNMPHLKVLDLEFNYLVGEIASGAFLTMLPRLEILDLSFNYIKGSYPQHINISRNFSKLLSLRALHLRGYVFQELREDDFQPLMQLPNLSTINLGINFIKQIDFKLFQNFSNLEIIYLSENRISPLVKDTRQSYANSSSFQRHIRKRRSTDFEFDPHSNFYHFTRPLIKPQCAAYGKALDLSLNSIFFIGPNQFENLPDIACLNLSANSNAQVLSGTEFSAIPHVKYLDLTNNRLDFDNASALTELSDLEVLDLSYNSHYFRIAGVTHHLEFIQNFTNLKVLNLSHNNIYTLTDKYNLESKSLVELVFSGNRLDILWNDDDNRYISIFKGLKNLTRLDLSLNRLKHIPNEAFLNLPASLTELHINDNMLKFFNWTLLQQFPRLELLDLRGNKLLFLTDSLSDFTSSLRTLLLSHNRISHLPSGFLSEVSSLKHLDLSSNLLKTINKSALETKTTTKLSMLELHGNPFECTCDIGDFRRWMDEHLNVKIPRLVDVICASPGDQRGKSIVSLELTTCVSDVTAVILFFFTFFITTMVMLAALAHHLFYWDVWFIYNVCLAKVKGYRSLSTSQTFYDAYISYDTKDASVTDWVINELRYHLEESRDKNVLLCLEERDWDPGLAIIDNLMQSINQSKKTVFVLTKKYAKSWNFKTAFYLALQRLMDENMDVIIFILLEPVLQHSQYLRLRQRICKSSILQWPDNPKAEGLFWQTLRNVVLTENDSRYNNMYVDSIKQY
Procedure: as §1

For assay [3], the target named is T3, Toll-like receptor 7 (Homo sapiens, UniProt Q9NYK1).
T3 sequence (Q9NYK1 whole entry): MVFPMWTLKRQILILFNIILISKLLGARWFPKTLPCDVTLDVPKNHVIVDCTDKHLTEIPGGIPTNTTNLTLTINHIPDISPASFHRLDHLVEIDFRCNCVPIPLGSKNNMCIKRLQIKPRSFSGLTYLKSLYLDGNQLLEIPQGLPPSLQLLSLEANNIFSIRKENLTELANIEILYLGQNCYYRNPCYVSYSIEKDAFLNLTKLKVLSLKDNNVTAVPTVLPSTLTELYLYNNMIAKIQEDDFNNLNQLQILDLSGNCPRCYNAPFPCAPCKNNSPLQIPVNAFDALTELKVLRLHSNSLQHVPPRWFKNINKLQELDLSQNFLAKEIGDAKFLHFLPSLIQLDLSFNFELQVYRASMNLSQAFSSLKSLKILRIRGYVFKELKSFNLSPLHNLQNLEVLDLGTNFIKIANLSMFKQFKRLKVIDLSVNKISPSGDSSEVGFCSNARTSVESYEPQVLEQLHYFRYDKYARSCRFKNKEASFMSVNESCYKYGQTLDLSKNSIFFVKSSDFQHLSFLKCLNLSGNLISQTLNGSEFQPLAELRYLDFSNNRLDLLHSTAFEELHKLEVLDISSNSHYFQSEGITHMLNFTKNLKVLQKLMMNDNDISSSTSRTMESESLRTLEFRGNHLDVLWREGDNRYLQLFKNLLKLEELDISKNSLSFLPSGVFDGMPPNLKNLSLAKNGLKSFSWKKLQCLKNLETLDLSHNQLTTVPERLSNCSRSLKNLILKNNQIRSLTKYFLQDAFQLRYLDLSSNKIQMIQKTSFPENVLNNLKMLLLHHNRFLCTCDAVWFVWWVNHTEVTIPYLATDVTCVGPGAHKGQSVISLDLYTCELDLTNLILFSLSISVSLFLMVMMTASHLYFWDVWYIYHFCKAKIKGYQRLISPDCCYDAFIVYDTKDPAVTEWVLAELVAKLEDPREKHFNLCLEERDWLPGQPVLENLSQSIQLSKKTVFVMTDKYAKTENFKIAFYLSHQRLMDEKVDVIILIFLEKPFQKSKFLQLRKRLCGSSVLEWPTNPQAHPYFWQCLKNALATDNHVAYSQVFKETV
Procedure: as §1

Structures are written as SMILES.

Data on four compounds can be found in BindingDB's records for patent US11912703 (Bristol Myers Squibb, 2024).

The IC50 is the concentration that gives 50% inhibition. Read a low IC50 as inhibition by little substance.

Turning to `Cc1c(-c2[nH]c3cnc(C4CCC(N5CC(CO)(CO)C5)CC4)c(F)c3c2C(C)C)cn2ncnc2c1C` (configuration not stated) [US11912703, Example 266], the IC50 in assay [1] was found to be 2030 nM; in assay [2] it was 23 nM; in assay [3], 26 nM.
In the same order, the values of `CNC(=O)CN1CCN(c2cc3c(C(C)C)c(-c4cc(OC)c5ncnn5c4)[nH]c3cn2)CC1` [US11912703, Example 288] are 2870 nM, 8.5 nM and 27 nM.
Turning to `CNCC(=O)N1CCN(c2cc3c(C(C)C)c(-c4cc(OC)c5ncnn5c4)[nH]c3cn2)CC1` [US11912703, Example 289], the IC50 amounted to 14000 nM in assay [1], 58 nM in assay [2] and 3.7 nM in assay [3].
With `COc1cc(-c2[nH]c3cnc(N4CCN(C5COC5)CC4)cc3c2C(C)C)cn2ncnc12` [US11912703, Example 303], the 50% inhibitory concentration (IC50) is over 50000 nM in assay [1], 12 nM in assay [2] and 19 nM in assay [3].
